# According to patent US9097673B2, “Processes and kits for determining multi-drug resistance of cells” (ENZO LIFE SCIENCES, INC., priority 2010, dated 2015):
# Key:
# CHO K1 cell line [1] = assay: Dye efflux flow cytometry MDR assay; type: cell-based, hamster; parameters: key to D-value, Verapamil / D-value, Novobiocin: KS D value, 0 to 1; negative if control brighter than sample; conditions: CHO K1, dye efflux
# Description: (§1) Kolmogorov-Smirnov statistics measures the difference between two distribution functions and generates a D value ranging between 0 and 1.0, with higher values indicating a greater difference between the distribution functions. The D value generated by the KS statistics was modified by ascribing a negative value if the fluorescence of a negative control (no inhibitor) was brighter than the fluorescence of the sample with inhibitor. The method was one of those recommended by the First International MDR1 Methods Detection Workshop (St. Jude Children's Research Hospital, Memphis, Tenn.).
# (§2) Cells were grown in tissue culture dishes and on the day of assay they were trypsinized and washed twice with ice-cold PBS. Post-wash, the cells were re-suspended in cold phenol red indicator-free medium at a density of 1×10^6/ml. For each detection set, eighteen tubes (6 tubes without inhibitor and 3 tubes for each inhibitor tested, in triplicates) each containing 2.5-5×10^5/cells were prepared. Cells were centrifuged at 200×g for 5 min, and after discarding supernatant, re-suspended at 1×10^6/ml in ice-cold indicator-free medium containing Fluo-8™ AM or Rhod-4™ AM probes. Additionally, an aliquot of non-stained cells was prepared for background fluorescence measurements. Cells were incubated with the probe(s) on ice for 60 min, than centrifuged at 200×g for 5 min. After discarding the supernatant, cells were either washed twice with PBS or simply were spun down to remove the excess of the probe and resuspended at 5×10^5 cells/sample in 0.5 ml of following solutions:
# (§3) 1. warm (37° C.) indicator-free medium containing vehicle only (3 tubes)
# (§4) 2. warm (37° C.) indicator-free medium containing inhibitor (3 tubes for each inhibitor tested)
# (§5) 3. ice-cold indicator-free medium (3 tubes)
# (§6) Tube sets 1 and 2 were immediately transferred to a water bath (37° C.) and incubated for 90 min. Tube set 3 was kept on ice. Post incubation, 4 ml of ice-cold indicator-free medium was added per tube, tubes were centrifuged at 200×g for 5 min, supernatant was discarded, and cell pellet was re-suspended in the cold indicator-free medium and centrifuged again. Finally, cells were re-suspended in 0.5 ml of cold indicator-free medium and maintained on ice until analysis. Alternatively, cells were analyzed without washing. Flow cytometry experiments were performed as described in Example 3.
# HeLa cell line [2] = assay: Dye uptake flow cytometry MDR assay; type: cell-based, human; conditions: HeLa, dye uptake
# Experimental: (§10) Concentrations of the modulators used in the experiments were non-toxic to the cells (based upon standard 3-(4,5-Dimethylthiazol-2-Yl)-2,5-Diphenyltetrazolium Bromide (MTT) testing, data not shown). Fluo-8™ was used in all experiments at 5 μM, and Rhod-4™—at 4 μM final concentrations.
# A549 cell line [3] = assay: Dye efflux flow cytometry MDR assay; type: cell-based, human; parameters: key to D-value, Verapamil / D-value, Novobiocin: KS D value, 0 to 1; negative if control brighter than sample; conditions: A549, dye efflux
# Description: as §1, §2, §3, §4, §5, §6
# HeLa cell line [4] = assay: Dye efflux flow cytometry MDR assay; type: cell-based, human; parameters: key to D-value, Verapamil / D-value, Novobiocin: KS D value, 0 to 1; negative if control brighter than sample
# Description: as §1, §2, §3, §4, §5, §6
# Hep G2 cells = assay: Dye uptake flow cytometry MDR assay; type: cell-based, human; parameters: key: Kolmogorov-Smirnov D statistic comparing fluorescence distributions; conditions: HepG2, dye uptake
# Experimental: (§7) Cells were grown on tissue culture dishes and on the day of assay were trypsinized and washed twice with warm (37° C.) phosphate-buffered saline (PBS). Post-wash, the cells were re-suspended in warm phenol red indicator-free medium at a density of 1×10^6/ml. For each detection set, sixteen tubes (5 samples in triplicates plus non-stained control for background fluorescence) in numbered tubes each containing 5×10^5/cells (0.5 ml) were prepared. […] After incubation for 5 min at 37° C., 0.25 ml of warm medium with Fluo-8™ AM probe (5 μM final concentration) or Rhod-4™ AM probe (2 μM final concentration) was added to each tube excluding non-stained control that receives plain medium and cells were incubated for 30 min at 37° C. and analyzed immediately by flow cytometry. In the second set of the tubes, the reaction was stopped by rapid centrifugation (1 min) at relatively low speed (200×g). After wash with ice-cold PBS and discarding the supernatant, cells were re-suspended in 0.5 ml of ice-cold medium and kept on ice until flow cytometry analysis. The third set of cells simply was spun down (1 min, 200×g) to remove the excess of the probe, resuspended in ice-cold medium and kept on ice until flow cytometry analysis.
# (§8) Flow cytometry experiments were performed using a FACS Calibur benchtop flow cytometer (BD Biosciences) equipped with a blue (488 nm) laser, and the signals were registered in the FITC (530/30 filter), PE (585/42 filter) and PerCP (670 LP filter) channels. Fluo-8™ dye fluorescence was measured in the FL1 channel, and Rhod-4™ dye fluorescence—in the FL2 channel. Flow cytometry data were analyzed by comparison of median fluorescence or using Kolmogorov-Smirnov statistics [Young, J Histochem Cytochem 25:935-941 (1977)] or by calculating MAF values (MDR Activity Factor) using the following formula: MAF=100*((MFIinh−MFI0)/MFIinh), where MFIinh and MFI0 are mean fluorescence intensity values measured in the presence and absence of inhibitor [Hollo et al., Biochem Piophys Acta. 1191:384-388 (1994)].
# (§9) Both human ileocecal colorectal carcinoma cell line HCT-8 (reported to over-express P-gp and, to a lesser extent, MRP [Hunter et al., Br J Cancer. 64:437-444 (1991); Collington et al., Biochem Pharmacol 44:417-424 (1992)] and hepatocellular carcinoma Hep G2 (reported to over-express MRP [Roelofsen et al., Gastroenterology 112:511-521 (1997), Cantz et al., Am J Physiol Gastrointest Liver Physiol. 278:G522-G531 (2000)] were obtained from ATCC. HCT-8 cells were routinely cultured in RPMI-1640 Medium with 2 mM L-glutamine, 10 mM HEPES, 1 mM sodium piruvate, 4.5 g/L glucose, 1.5 g/L sodium bicarbonate (ATCC), supplemented with 10% horse serum (ATCC) and 100 U/ml penicillin, 100 ug/ml streptomycin (Sigma-Aldrich, St. Louis, Mo.). Hep G2 cells were routinely cultured in Eagle's Minimum Essential Medium with low glucose (ATCC), supplemented with 10% heat inactivated fetal bovine serum (ATCC) and 100 U/ml penicillin, 100 ug/ml streptomycin (Sigma-Aldrich, St. Louis, Mo.). Cell cultures were maintained in a humidified incubator at 37° C., with 5% CO2 atmosphere. Stock solutions of the probes and inhibitors were prepared, as described in Examples 2 and 3. Cells were grown in tissue culture dishes and on the day of assay were treated according to a dye uptake protocol and analyzed by flow cytometry, as described in Example 3.
# HCT-8 cells = assay: Dye uptake flow cytometry MDR assay; type: cell-based, human; parameters: key: Kolmogorov-Smirnov D statistic comparing fluorescence distributions; conditions: HCT-8, dye uptake
# Experimental: as §7, §8, §9
# CHO K1 cell line [5] = assay: Dye uptake flow cytometry MDR assay; type: cell-based, hamster; conditions: CHO K1, dye uptake;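 also: flow cytometry of dye-loaded cells, Kolmogorov-Smirnov D value (0 to 1.0) comparing fluorescence with versus without inhibitor, made negative when the uninhibited control was brighter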
# Experimental: as §10
# A549 cell line [6] = assay: Dye uptake flow cytometry MDR assay; type: cell-based, human; conditions: A549, dye uptake
# Experimental: as §10
# [7] = kept on ice without inhibitor (Table 9)
# [8] = representative experiment (Table 9)
# [9] = average of three representative experiments (Table 6)
# [10] = representative experiment (Table 8)
structure (smiles),measurement,setting,value
CC(=O)OCOC(=O)CN(CC(=O)OCOC(C)=O)Cc1cc2c(cc1OC(C)=O)Oc1cc(OC(C)=O)c(CN(CC(=O)OCOC(C)=O)CC(=O)OCOC(C)=O)cc1C21OC(=O)c2ccccc21 [Calcein AM],"D-value, 4° C.",CHO K1 cell line [1]; [7],0.65
same,"D-value, Cyclosporine A",CHO K1 cell line [1]; [8],0.31
same,"D-value, Novobiocin",CHO K1 cell line [1]; [8],0.13
same,"D-value, Probenecid",CHO K1 cell line [1]; [8],0.47
same,"D-value, Verapamil",CHO K1 cell line [1]; [8],0.26
same,"D-value, Fumitremorgan C",HeLa cell line [2]; [9],0.03
same,"D-value, Probenecid",HeLa cell line [2]; [9],0.06
same,"D-value, Verapamil",HeLa cell line [2]; [9],0.17
same,"D-value, Cyclosporine A",HeLa cell line [2]; [10],0.14
same,"D-value, Novobiocin",HeLa cell line [2]; [10],0.09
same,"D-value, Probenecid",HeLa cell line [2]; [10],0.09
same,"D-value, Verapamil",HeLa cell line [2]; [10],0.13
same,"D-value, 4° C.",A549 cell line [3]; [7],0.50
same,"D-value, Cyclosporine A",A549 cell line [3]; [8],0.35
same,"D-value, Novobiocin",A549 cell line [3]; [8],0.15
same,"D-value, Probenecid",A549 cell line [3]; [8],0.40
same,"D-value, Verapamil",A549 cell line [3]; [8],0.03
same,"D-value, 4° C.",HeLa cell line [4]; [7],0.07
same,"D-value, Cyclosporine A",HeLa cell line [4]; [8],0.08
same,"D-value, Novobiocin",HeLa cell line [4]; [8],0.04
same,"D-value, Probenecid",HeLa cell line [4]; [8],0.62
same,"D-value, Verapamil",HeLa cell line [4]; [8],0.1
same,"D-value, CyclosporinA",Hep G2 cells,0.29
same,"D-value, MK-571",Hep G2 cells,0.29
same,"D-value, Novobiocin",Hep G2 cells,0.02
same,"D-value, Verapamil",Hep G2 cells,0.13
same,"D-value, CyclosporinA",HCT-8 cells,0.31
same,"D-value, MK-571",HCT-8 cells,0.16
same,"D-value, Novobiocin",HCT-8 cells,0.44
same,"D-value, Verapamil",HCT-8 cells,0.71
same,"D-value, Fumitremorgan C",CHO K1 cell line [5]; [9],0.17
same,"D-value, Probenecid",CHO K1 cell line [5]; [9],0.77
same,"D-value, Verapamil",CHO K1 cell line [5]; [9],0.74
same,"D-value, Cyclosporine A",CHO K1 cell line [5]; [10],0.96
same,"D-value, Novobiocin",CHO K1 cell line [5]; [10],0.06
same,"D-value, Probenecid",CHO K1 cell line [5]; [10],0.70
same,"D-value, Verapamil",CHO K1 cell line [5]; [10],0.93
same,"D-value, Fumitremorgan C",A549 cell line [6]; [9],0.04
same,"D-value, Probenecid",A549 cell line [6]; [9],0.36
same,"D-value, Verapamil",A549 cell line [6]; [9],0.17
same,"D-value, Cyclosporine A",A549 cell line [6]; [10],0.47
same,"D-value, Novobiocin",A549 cell line [6]; [10],0.03
same,"D-value, Probenecid",A549 cell line [6]; [10],0.27
same,"D-value, Verapamil",A549 cell line [6]; [10],0.15
